1 substance from patent publication US20240409647A1, “BISPECIFIC BINDING PROTEINS AGAINST ALARMINS AND USES THEREOF” (SINOMAB BIOSCIENCE LIMITED, priority 2022, published 2024) can be followed below.

One assay has as its target T1, hIL17RA (Homo sapiens, UniProt Q96F46).
T1 construct: purchased R&D systems
The experiment in a line: ELISA, SM17 specificity against IL-17 receptor subunits (IL17RA). Type of assay: binding. The settings on record: 0.4 to 0.00064 μg/mL. As to the method:
(§1) A standard ELISA method was used to determine the specificity of SM17 against other human IL17 receptor subunits. Similarly, serially diluted SM17 at different concentrations (final concentrations at 0.4, 0.08, 0.016, 0.0032 and 0.00064 μg/m, respectively) was added to the wells of ELISA plates coated either with human IL-17 receptor subunits A, C, D and E (IL17RA, IL17RC, IL17RD, and IL17RE) (R&D systems).
On the technique in general: An ELISA detects its analyte on a solid surface through an enzyme-linked reagent.

The target in the next assay is T2, TSLP (Homo sapiens, UniProt Q969D9).
T2 construct: purchased R&D systems
Description: Bio-Layer Interferometry (Octet), binding kinetics of bsBp to human TSLP. As to the method: The binding affinity of bsBp to the targeted alarmins was determined using a bio-Layer Interferometry analysis (Octet ReD96 system, Sartorius). bsBp or SM17 (20 μg/mL) was immobilized on biosensors via binding to anti-human Fab CH1 region; serially diluted human IL33 and TSLP (158.7 nM, 79.4 nM, 39.7 nM) (R&D systems) were added to plot the association and dissociation curve according to the manufacturer's specification. Biosensors immobilized with irrelevant antibody (SM03, anti-human CD22 chimeric IgG1 antibody, SinoMab BioScience Limited, 20 μg/mL) were used as control reference.
(In BLI a coated tip is dipped into the sample, and binding shifts an interference pattern.)

Assay [1] has as its system Th2 cell population in human PBMC. Description: Th2 cell population in human PBMC culture (flow cytometry). It counts as cell-based. The arrangement: key: −: no inhibition; +: weak; ++: moderate; +++: strong inhibition. The settings on record: IL-2 (10 unit/mL) and three alarmins (10 ng/ml), 5 days. The text has this: While alarmins are known to work in concert to enhance ILC2 and Th2 cell functions such as increase in cell population, steroids such as Dexamethasone (Dex) can negate these effects, resulting in the mitigation of type 2 immune responses [Jia, Yi et al. American Journal Of Respiratory Cell And Molecular Biology, vol. 55, 5 (2016): 675-683]. ILC2 and Th2 cell population can be determined by flow cytometry (BD FACSVerse) following standard procedures known to those skilled in the art.
In general terms: A flow cytometer gives signals particle by particle.

A further assay concerns the target T3, hIL 17RD (Homo sapiens, UniProt Q8NFM7).
T3 construct: purchased R&D systems
T3 sequence (Q8NFM7 17-739): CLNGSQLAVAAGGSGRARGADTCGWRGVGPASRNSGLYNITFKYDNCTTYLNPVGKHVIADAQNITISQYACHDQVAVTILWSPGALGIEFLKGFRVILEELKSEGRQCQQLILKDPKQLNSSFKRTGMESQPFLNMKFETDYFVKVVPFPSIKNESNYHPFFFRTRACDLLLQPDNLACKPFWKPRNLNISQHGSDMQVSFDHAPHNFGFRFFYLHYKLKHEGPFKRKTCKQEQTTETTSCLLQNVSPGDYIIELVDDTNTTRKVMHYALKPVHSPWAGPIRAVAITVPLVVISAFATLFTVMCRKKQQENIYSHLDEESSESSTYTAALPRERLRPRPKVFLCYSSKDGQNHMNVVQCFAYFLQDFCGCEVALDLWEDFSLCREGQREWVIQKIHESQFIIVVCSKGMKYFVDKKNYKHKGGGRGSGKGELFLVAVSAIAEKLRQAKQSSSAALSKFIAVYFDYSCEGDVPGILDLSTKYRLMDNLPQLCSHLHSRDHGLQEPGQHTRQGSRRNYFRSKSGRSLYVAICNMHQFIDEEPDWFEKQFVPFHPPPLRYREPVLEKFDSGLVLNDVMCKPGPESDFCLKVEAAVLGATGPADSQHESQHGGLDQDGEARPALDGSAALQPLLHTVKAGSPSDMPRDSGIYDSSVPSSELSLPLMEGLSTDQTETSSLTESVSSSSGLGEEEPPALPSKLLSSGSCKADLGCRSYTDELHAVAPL
The experiment in a line: ELISA, SM17 specificity against IL-17 receptor subunits (IL17RD). Type of assay: binding. The settings on record: 0.4 to 0.00064 μg/mL. As to the method:
as §1

Another assay has as its system Normal human DCs. Description: Dendritic cell potency assay, TSLP-induced CCL17 production. Type of assay: cell-based. The arrangement: key: −: no inhibition; +: weak; ++: moderate; +++: strong inhibition. The note with it: 5 μg/mL; TSLP 10 ng/mL, 5 days. The text has this: TSLP from inflamed epithelium promotes maturation of dendritic cells (DCs) to prime Th2 responses via CCL17, which induces chemotaxis of CD4+ T cells to mediate inflammation (Kitajima and Ziegler. 2013. “Cutting Edge: Identification Of The Thymic Stromal Lymphopoietin-Responsive Dendritic Cell Subset Critical For Initiation Of Type 2 Contact Hypersensitivity”. J Immunol 191: 4903-4907; Bleck et al. 2015. “Co-Expression Of Type 2 Immune Targets In Sputum-Derived Epithelial And Dendritic Cells From Asthmatic Subjects”. J Allergy Clin Immunol 136: 619-627.e5). Normal human DCs were obtained from Lonza (Bend, OR). The DCs were cultured in LGM-3 medium (Lonza). TSLP (10 ng/mL) is added into the DC cultures for 5 days in the presence of 5 μg/mL of SM17, IgG4 isotype control (Sino Biological), SM17-TSLPR bsBp (SM17 fused with TSLP receptor extracellular domain) or SM17-anti-TSLP bsBp 2 #. The supernatants are harvested and the levels of CCL17 measured by ELISA following the manufacturer's specification (R&D systems).

The subject of a further assay is cynomolgus IL17RB. Description: ELISA, SM17 binding to coated IL-17RB protein (cynomolgus). The note with it: two wells. As to the method:
A standard enzyme-linked immunosorbent assay (ELISA) method was used to determine the species specificity of SM17 against IL-17RB proteins. Briefly, IL-17RB proteins from human, mouse, cynomolgus or rhesus monkey (R&D systems, Minneapolis, MN) were diluted to 2.5 μg/ml in PBS and 50 μl of IL-17RB proteins were added to each well of ELISA strip. The strips were sealed with parafilm and incubated at 4° C. overnight for coating.
On the next day, strips were washed thrice with washing buffer (0.05% Tween 20 in PBS) and blocked with 100 μl per well with blocking buffer (3% BSA in PBS) for 2 hours RT before serially diluted SM17 (at a final concentration of 10, 2, 0.4, 0.08, 0.016, 0.0032, and 0.00064 μg/ml, respectively) was added.

Several values for one entry are separate records, joined by “and”; a condition that tells them apart may be missing. Identical values can stand only once.

As to “SM17: humanized anti-IL17RB monoclonal antibody, human IgG4 isotype; HC SEQ ID NO: 32, LC SEQ ID NO: 33”, in the assay with hIL17RA, the “binding of SM17 to IL17RA (in words)” value was “No obvious bindings”. Moreover, the Kdis in the assay with TSLP came out at 0.001 s⁻¹. The Ka with TSLP (bsBp or SM17 immobilized at 20 μg/mL) worked out at 10000 M⁻¹ s⁻¹. In assay [1], the “Cell proliferation inhibition, Th2” value is “+++”. In addition, the “binding of SM17 to IL17RD (in words)” value with hIL 17RD was “No obvious bindings”. For the same substance, the “Potency, inhibition of CCL17 release on dendritic cells” value with Normal human DCs is “−”. Further, the “OD 450 nm Absorption, cynomolgus IL17RB” value with cynomolgus IL17RB (SM17 0.016 μg/mL) was 0.34; in the assay with cynomolgus IL17RB (SM17 0.08 μg/mL) it was 0.72 and 0.74; with cynomolgus IL17RB (SM17 0.4 μg/mL) it was 0.89 and 0.97; with cynomolgus IL17RB (SM17 2 μg/mL), 1.13 and 1.12; with cynomolgus IL17RB (SM17 10 μg/mL), 1.33 and 1.37.
